According to publication PMC11826341 (PNAS Nexus, 2025):
Entries after “also recorded” stand apart in the source; their conditions may differ.

Key:
[1] = test system: cultured hippocampal neurons
[2] = test system: cultured hippocampal neurons; settings: 48 h
[3] = test system: sEPSCNMDAR, synaptic NMDARs of cultured hippocampal neurons; assay type: cell-based, rat

N[C@H](CCCP(=O)(O)O)C(=O)O [AP5, (2R)-amino-5-phosphonovaleric acid]
Neuroprotection against STRO [1]: did not exert neuroprotection

CN[C@H](CC(=O)O)C(=O)O [NMDA, N-methyl-D-aspartate]
Neurons killed [2]: ~80%

CN[C@@H]1C[C@H]2O[C@@](C)([C@@H]1OC)n1c3ccccc3c3c4c(c5c6ccccc6n2c5c31)C(=O)NC4 [STRO, staurosporine]
Apoptotic neurons [1]: 30.85% | Dead (apoptotic) neurons [1]: 76.99%

CC(C(O)c1ccc(O)cc1)N1CCC(Cc2ccccc2)CC1 (centres unmarked) [ifenprodil]
sEPSCNMDAR amplitude [3]: strongly reduced amplitudes; also recorded: significantly less so in mature neurons
